Results: patent publication US12486302B2, “Somatostatin receptor antagonist compounds and methods of using the same” (CDRD VENTURES INC., priority 2016, dated 2025)
Where a SMILES comes first, the peptide text is derived from it. Bridges are numbered along the chain shown (N, C = ends). Triazole bridges read from a SMILES are 1,4-linked. [ ]: non-standard residue; d: D form. The star is where a group is joined. ξ: configuration not given here. dPhe(4-CONH2) = NC(=O)c1ccc(C[C@@H](N)C(=O)O)cc1; Phe(4-Cl) = N[C@@H](Cc1ccc(Cl)cc1)C(=O)O; Dap(N3) = [N-]=[N+]=NC[C@H](N)C(=O)O; ξPhe(4-Cl) = NC(Cc1ccc(Cl)cc1)C(=O)O; Lys(Me) = CNCCCC[C@H](N)C(=O)O; X4 = O=C(CS(=O)(=O)c1ccccc1)*; ξY = NC(Cc1ccc(O)cc1)C(=O)O; Pra = C#CC[C@H](N)C(=O)O; Bz = O=C(c1ccccc1)*

Target: somatostatin type 2 (SSTR2) receptors (Homo sapiens, UniProt P30874)
Sequence (P30874 whole entry): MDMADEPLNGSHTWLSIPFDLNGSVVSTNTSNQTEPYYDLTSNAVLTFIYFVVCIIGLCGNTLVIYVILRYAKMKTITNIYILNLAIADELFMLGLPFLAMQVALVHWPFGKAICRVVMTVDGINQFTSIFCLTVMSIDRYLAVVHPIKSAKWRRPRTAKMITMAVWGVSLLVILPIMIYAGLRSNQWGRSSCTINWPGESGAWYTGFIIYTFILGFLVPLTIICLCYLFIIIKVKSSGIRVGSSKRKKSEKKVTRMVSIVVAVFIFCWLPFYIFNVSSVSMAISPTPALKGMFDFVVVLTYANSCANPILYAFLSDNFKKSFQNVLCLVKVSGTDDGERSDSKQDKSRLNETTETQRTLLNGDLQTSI
Experiment: PathHunter β-Arrestin assay, antagonist mode, SSTR2
Format: cell-based
Conditions: agonist challenge at EC80
Procedure: The PathHunter® β-Arrestin assay monitors the activation of a GPCR in a homogenous, non-imaging assay format using a technology developed by DiscoveRx called Enzyme Fragment Complementation (EFC) with β-galactosidase (β-Gal) as the functional reporter. […] EA is fused to β-Arrestin and […] is fused to the GPCR of interest. When the GPCR is activated and β-Arrestin is recruited to the receptor, ED and EA complementation occurs, restoring β-Gal activity which is measured using chemiluminescent PathHunter® Detection Reagents. For antagonist determination, cells were pre-incubated with the compounds followed by agonist challenge at the EC80 concentration. Data was normalized to the maximal and minimal response observed in the presence of EC80 ligand and vehicle. Compound activity was analyzed using CBIS data analysis suite ChemInnovation, CA). Percentage inhibition was calculated using the following formula: % Inhibition=100%×(1−(mean signal of test sample-mean signal of vehicle control)/(mean signal of EC80 control-mean signal of vehicle control)). Percentage inhibition was calculated at 10 concentrations in steps on a Log 3 scale ranging from […] to 5e-5 μM. The results were plotted for IC50 calculation.

| IC50 | SMILES |
| --- | --- |
| 0.00145 µM | CNCCCC[C@@H]1NC(=O)[C@@H](Cc2ccc(C(N)=O)cc2)NC(=O)[C@H](Cc2ccc(O)cc2)NC(=O)[C@H](NC(=O)[C@H](Cc2ccc(Cl)cc2)NC(=O)CS(=O)(=O)c2ccccc2)CSSC[C@@H](C(=O)N[C@H](Cc2ccc(O)cc2)C(N)=O)NC(=O)[C@H]([C@@H](C)O)NC1=O [Compound 51, PhSO2CH2(CO)-Cpa-cyclo[D-Cys-Tyr-D-Phe(4-carbamoyl)-Lys(N^ε-Me)-Thr-Cys]-D-Tyr-NH2] (X4-[Phe(4-Cl)][dC]Y[dPhe(4-CONH2)][Lys(Me)]TC[dY]-NH2; disulfide 2-7) |
| 0.00151 µM | CNCCCC[C@@H]1NC(=O)[C@@H](Cc2ccc(C(N)=O)cc2)NC(=O)[C@H](Cc2ccc(Cl)cc2)NC(=O)[C@H](NC(=O)[C@@H](N)Cc2ccc(Cl)cc2)CSSC[C@@H](C(=O)NC(Cc2ccc(Cl)cc2)C(N)=O)NC(=O)[C@H]([C@@H](C)O)NC1=O (stereo partly drawn) [Compound 47, H-Cpa-cyclo[D-Cys-Cpa-D-Phe(4-carbamoyl)-Lys(N^ε-Me)-Thr-Cys]-D-Cpa-NH2] (H-[Phe(4-Cl)][dC][Phe(4-Cl)][dPhe(4-CONH2)][Lys(Me)]TC[ξPhe(4-Cl)]-NH2; disulfide 2-7) |
| > 1 µM | C[C@@H](O)[C@@H]1NC(=O)[C@H](CCCCN)NC(=O)[C@@H](Cc2ccc(C(N)=O)cc2)NC(=O)[C@H](Cc2ccc(O)cc2)NC(=O)[C@@H](NC(=O)[C@@H](N)Cc2ccc(Cl)cc2)CC=CC[C@@H](C(=O)N[C@H](Cc2ccc(O)cc2)C(N)=O)NC1=O (stereo in doubt) [Compound 68] |
| 0.00111 µM | CNCCCC[C@@H]1NC(=O)[C@@H](Cc2ccc(C(N)=O)cc2)NC(=O)[C@H](Cc2ccc(O)cc2)NC(=O)[C@H](NC(=O)[C@H](Cc2ccc(Cl)cc2)NC(=O)CNC(=O)c2ccccc2)CSSC[C@@H](C(=O)N[C@H](Cc2ccc(O)cc2)C(N)=O)NC(=O)[C@H]([C@@H](C)O)NC1=O [Compound 50, Ph(CO)NHCH2(CO)-Cpa-cyclo[D-Cys-Tyr-D-Phe(4-carbamoyl)-Lys(N^ε-Me)-Thr-Cys]-D-Tyr-NH2] (Bz-G[Phe(4-Cl)][dC]Y[dPhe(4-CONH2)][Lys(Me)]TC[dY]-NH2; disulfide 3-8) |
| 0.0107 µM | COc1ccc(CC(NC(=O)[C@@H]2CSSC[C@@H](NC(=O)[C@@H](N)Cc3ccc(Cl)cc3)C(=O)N[C@@H](Cc3ccc(O)cc3)C(=O)N[C@H](Cc3ccc(C(N)=O)cc3)C(=O)N[C@@H](CCCCN)C(=O)N[C@@H]([C@@H](C)O)C(=O)N2)C(N)=O)cc1 (stereo partly drawn) [Compound 44, H-Cpa-cyclo[DCys- Tyr-D-(4- carbamoyl)Phe-Lys- Thr-Cys]-4-OMe-D- Phe-NH2] (H-[Phe(4-Cl)][dC]Y[dPhe(4-CONH2)]KTC[ξY](Me)-NH2; disulfide 2-7) |
| > 1 µM | CC(O)[C@@H]1NC(=O)[C@H](CCCCN)NC(=O)[C@@H](Cc2ccc(C(N)=O)cc2)NC(=O)[C@H](Cc2ccc(O)cc2)NC(=O)[C@H](NC(=O)[C@@H](N)Cc2ccc(Cl)cc2)CNC(=O)SC[C@@H](C(=O)N[C@H](Cc2ccc(O)cc2)C(N)=O)NC1=O (stereo partly drawn) [Compound 60, H-Cpa-cyclo [DDap-Tyr- DPhe(4-CONH2)- Lys-Thr-Cys]- DTyr-NH2] |
| > 1 µM | CC(=O)NCCCC[C@@H]1NC(=O)[C@@H](Cc2ccc(C(N)=O)cc2)NC(=O)[C@H](Cc2ccc(O)cc2)NC(=O)[C@H](NC(=O)[C@@H](N)Cc2ccc(Cl)cc2)CSSC[C@@H](C(=O)NC(Cc2ccc(O)cc2)C(N)=O)NC(=O)[C@H]([C@@H](C)O)NC1=O (stereo partly drawn) [Compound 26, H-Cpa-cyclo[DCys- Tyr-D-(4- carbamoyl)Phe-(N- Acetyl)Lys-Thr-Cys]- DTyr-NH2] (H-[Phe(4-Cl)][dC]Y[dPhe(4-CONH2)]K(Ac)TC[ξY]-NH2; disulfide 2-7) |
| 0.688 µM | C[C@@H](O)[C@@H]1NC(=O)[C@H](CCCCN)NC(=O)[C@@H](Cc2ccc(C(N)=O)cc2)NC(=O)[C@H](Cc2ccc(O)cc2)NC(=O)[C@@H](NC(=O)[C@@H](N)Cc2ccc(Cl)cc2)Cc2cn(nn2)C[C@@H](C(=O)N[C@H](Cc2ccc(O)cc2)C(N)=O)NC1=O [Compound 65] (H-[Phe(4-Cl)][Pra]Y[dPhe(4-CONH2)]KT[Dap(N3)][dY]-NH2; triazole 2-7) |
